# Source: US10351548B2, “2-oxo-1,2-dihydropyridine-3-carboxamide compounds and their use as inhibitors of PDK1” (INTERNATIONAL SOCIETY FOR DRUG DEVELOPMENT S.R.L., priority 2015, dated 2019)
# Like-named read-outs stand apart in the source and are kept apart here.
# Key:
# Assay in all cases: IB35 kinases profiling at 100 nM (ZLYTE)
# Type in all cases: biochemical
# PRKCD (PKC delta) = PRKCD (PKC delta) (Homo sapiens (Human), UniProt Q05655); conditions: IB35 100 nM, ATP Km app
# Excerpt: (§1) The results are reported below
# CHEK2 (CHK2) = CHEK2 (CHK2) (Homo sapiens (Human), UniProt O96017); conditions: IB35 100 nM, ATP Km app
# Excerpt: as §1
# PRKCA (PKC alpha) = PRKCA (PKC alpha) (Homo sapiens (Human), UniProt P17252); conditions: IB35 100 nM, ATP Km app
# Excerpt: as §1
# AKT2 (PKB beta) = AKT2 (PKB beta) (Homo sapiens (Human), UniProt P31751); conditions: IB35 100 nM, ATP Km app
# Excerpt: as §1
# JAK1 = JAK1 (Homo sapiens (Human), UniProt P23458); conditions: IB35 100 nM, ATP Km app
# Excerpt: as §1
# RAF1 (cRAF) Y340D Y341D = RAF1 (cRAF) Y340D Y341D (Homo sapiens (Human), UniProt P04049, Y340D/Y341D); conditions: IB35 100 nM, ATP 100
# Excerpt: as §1
# RPS6KA1 (RSK1) = RPS6KA1 (RSK1) (Homo sapiens (Human), UniProt Q15418); conditions: IB35 100 nM, ATP Km app
# Excerpt: as §1
# PRKACA (PKA) = PRKACA (PKA) (Homo sapiens (Human), UniProt P17612); conditions: IB35 100 nM, ATP Km app
# Excerpt: as §1
# PAK6 = PAK6 (Homo sapiens (Human), UniProt Q9NQU5); conditions: IB35 100 nM, ATP Km app
# Excerpt: as §1
# AKT1 (PKB alpha) = AKT1 (PKB alpha) (Homo sapiens (Human), UniProt P31749); conditions: IB35 100 nM, ATP Km app
# Excerpt: as §1
# LCK = LCK (Homo sapiens (Human), UniProt P06239); conditions: IB35 100 nM, ATP Km app
# Excerpt: as §1
# MAPK9 (JNK2) = MAPK9 (JNK2) (Homo sapiens (Human), UniProt P45984); conditions: IB35 100 nM, ATP 100
# Excerpt: as §1
# MAP2K1 (MEK1) = MAP2K1 (MEK1) (Homo sapiens (Human), UniProt Q02750); conditions: IB35 100 nM, ATP 100
# Excerpt: as §1
# MAPK3 (ERK1) = MAPK3 (ERK1) (Homo sapiens (Human), UniProt P27361); conditions: IB35 100 nM, ATP Km app
# Excerpt: as §1
# IRAK4 = IRAK4 (Homo sapiens (Human), UniProt Q9NWZ3); conditions: IB35 100 nM, ATP Km app
# Excerpt: as §1
# ITK = ITK (Homo sapiens (Human), UniProt Q08881); conditions: IB35 100 nM, ATP Km app
# Excerpt: as §1
# CSNK1A1 (CK1 alpha 1) = CSNK1A1 (CK1 alpha 1) (Homo sapiens (Human), UniProt P48729); conditions: IB35 100 nM, ATP Km app
# Excerpt: as §1
# AMPK A2/B1/G1 = AMPK A2/B1/G1 (Homo sapiens (Human), UniProt P54646); conditions: IB35 100 nM, ATP Km app
# Excerpt: as §1
# PRKCB1 (PKC beta I) = PRKCB1 (PKC beta I) (Homo sapiens (Human), UniProt P05771); conditions: IB35 100 nM, ATP Km app
# Excerpt: as §1
# GSK3B (GSK3 beta) = GSK3B (GSK3 beta) (Homo sapiens (Human), UniProt P49841); conditions: IB35 100 nM, ATP Km app
# Excerpt: as §1
# PRKCE (PKC epsilon) = PRKCE (PKC epsilon) (Homo sapiens (Human), UniProt Q02156); conditions: IB35 100 nM, ATP Km app
# Excerpt: as §1
# PRKCZ (PKC zeta) = PRKCZ (PKC zeta) (Homo sapiens (Human), UniProt Q05513); conditions: IB35 100 nM, ATP Km app
# Excerpt: as §1
# BRAF = BRAF (Homo sapiens (Human), UniProt P15056); conditions: IB35 100 nM, ATP 100
# Excerpt: as §1
# MAPK8 (JNK1) = MAPK8 (JNK1) (Homo sapiens (Human), UniProt P45983); conditions: IB35 100 nM, ATP 100
# Excerpt: as §1
# BTK = BTK (Homo sapiens (Human), UniProt Q06187); conditions: IB35 100 nM, ATP Km app
# Excerpt: as §1
# CDC42 BPA (MRCKA) = CDC42 BPA (MRCKA) (Homo sapiens (Human), UniProt Q5VT25); conditions: IB35 100 nM, ATP Km app
# Excerpt: as §1
# MAPK1 (ERK2) = MAPK1 (ERK2) (Homo sapiens (Human), UniProt P28482); conditions: IB35 100 nM, ATP Km app
# Excerpt: as §1
# PRKCZ (PKC zeta), sequence (Q05513 whole entry, species assumed): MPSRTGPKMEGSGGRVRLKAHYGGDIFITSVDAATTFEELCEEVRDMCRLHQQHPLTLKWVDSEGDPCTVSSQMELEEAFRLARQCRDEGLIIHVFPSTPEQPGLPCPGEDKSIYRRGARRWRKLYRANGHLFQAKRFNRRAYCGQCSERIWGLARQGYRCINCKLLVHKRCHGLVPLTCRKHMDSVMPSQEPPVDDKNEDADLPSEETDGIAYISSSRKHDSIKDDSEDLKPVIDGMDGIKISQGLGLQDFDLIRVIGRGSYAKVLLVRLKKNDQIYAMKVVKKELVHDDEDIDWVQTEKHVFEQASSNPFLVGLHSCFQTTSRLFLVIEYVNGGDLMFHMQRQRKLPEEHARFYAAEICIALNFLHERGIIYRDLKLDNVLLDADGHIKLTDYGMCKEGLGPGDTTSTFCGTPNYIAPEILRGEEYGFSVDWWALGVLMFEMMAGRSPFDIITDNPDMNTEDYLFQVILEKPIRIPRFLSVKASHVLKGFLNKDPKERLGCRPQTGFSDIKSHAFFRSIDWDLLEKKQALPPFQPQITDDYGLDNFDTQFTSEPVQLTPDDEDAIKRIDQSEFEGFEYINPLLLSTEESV
# AMPK A2/B1/G1, sequence (P54646 whole entry): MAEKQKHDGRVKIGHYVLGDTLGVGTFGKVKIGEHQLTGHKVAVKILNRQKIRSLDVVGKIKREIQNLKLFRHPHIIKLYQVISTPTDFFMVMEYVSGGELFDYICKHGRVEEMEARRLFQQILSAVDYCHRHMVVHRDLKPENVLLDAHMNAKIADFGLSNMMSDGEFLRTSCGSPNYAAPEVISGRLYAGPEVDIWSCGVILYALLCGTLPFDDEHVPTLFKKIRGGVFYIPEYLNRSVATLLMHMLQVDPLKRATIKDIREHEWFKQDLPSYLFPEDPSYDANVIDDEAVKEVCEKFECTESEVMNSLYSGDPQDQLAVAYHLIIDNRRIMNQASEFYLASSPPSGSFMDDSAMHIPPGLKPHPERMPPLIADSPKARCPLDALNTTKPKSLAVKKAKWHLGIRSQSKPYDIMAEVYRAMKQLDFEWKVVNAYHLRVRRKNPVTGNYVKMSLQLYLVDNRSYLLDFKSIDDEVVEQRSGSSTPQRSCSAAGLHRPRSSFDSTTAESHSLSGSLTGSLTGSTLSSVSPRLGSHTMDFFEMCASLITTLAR
# AMPK A2/B1/G1, sequence (Q9Y478 whole entry partner): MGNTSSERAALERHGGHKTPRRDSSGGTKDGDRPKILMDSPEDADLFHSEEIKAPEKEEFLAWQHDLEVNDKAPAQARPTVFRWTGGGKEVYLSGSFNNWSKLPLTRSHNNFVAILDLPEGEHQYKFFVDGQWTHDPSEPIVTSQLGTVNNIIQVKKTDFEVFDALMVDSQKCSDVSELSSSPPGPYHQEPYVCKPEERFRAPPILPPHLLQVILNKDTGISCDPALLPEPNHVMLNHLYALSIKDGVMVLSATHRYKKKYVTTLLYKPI
# AMPK A2/B1/G1, sequence (P54619 whole entry partner): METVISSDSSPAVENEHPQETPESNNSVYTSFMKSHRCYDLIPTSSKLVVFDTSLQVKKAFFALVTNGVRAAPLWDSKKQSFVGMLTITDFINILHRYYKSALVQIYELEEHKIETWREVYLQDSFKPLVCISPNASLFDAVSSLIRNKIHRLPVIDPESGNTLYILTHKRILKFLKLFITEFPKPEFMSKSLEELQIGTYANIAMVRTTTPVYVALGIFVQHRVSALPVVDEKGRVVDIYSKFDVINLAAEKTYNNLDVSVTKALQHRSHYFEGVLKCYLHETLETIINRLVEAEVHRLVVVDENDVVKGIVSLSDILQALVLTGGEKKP
# CDC42 BPA (MRCKA), sequence (Q5VT25 whole entry): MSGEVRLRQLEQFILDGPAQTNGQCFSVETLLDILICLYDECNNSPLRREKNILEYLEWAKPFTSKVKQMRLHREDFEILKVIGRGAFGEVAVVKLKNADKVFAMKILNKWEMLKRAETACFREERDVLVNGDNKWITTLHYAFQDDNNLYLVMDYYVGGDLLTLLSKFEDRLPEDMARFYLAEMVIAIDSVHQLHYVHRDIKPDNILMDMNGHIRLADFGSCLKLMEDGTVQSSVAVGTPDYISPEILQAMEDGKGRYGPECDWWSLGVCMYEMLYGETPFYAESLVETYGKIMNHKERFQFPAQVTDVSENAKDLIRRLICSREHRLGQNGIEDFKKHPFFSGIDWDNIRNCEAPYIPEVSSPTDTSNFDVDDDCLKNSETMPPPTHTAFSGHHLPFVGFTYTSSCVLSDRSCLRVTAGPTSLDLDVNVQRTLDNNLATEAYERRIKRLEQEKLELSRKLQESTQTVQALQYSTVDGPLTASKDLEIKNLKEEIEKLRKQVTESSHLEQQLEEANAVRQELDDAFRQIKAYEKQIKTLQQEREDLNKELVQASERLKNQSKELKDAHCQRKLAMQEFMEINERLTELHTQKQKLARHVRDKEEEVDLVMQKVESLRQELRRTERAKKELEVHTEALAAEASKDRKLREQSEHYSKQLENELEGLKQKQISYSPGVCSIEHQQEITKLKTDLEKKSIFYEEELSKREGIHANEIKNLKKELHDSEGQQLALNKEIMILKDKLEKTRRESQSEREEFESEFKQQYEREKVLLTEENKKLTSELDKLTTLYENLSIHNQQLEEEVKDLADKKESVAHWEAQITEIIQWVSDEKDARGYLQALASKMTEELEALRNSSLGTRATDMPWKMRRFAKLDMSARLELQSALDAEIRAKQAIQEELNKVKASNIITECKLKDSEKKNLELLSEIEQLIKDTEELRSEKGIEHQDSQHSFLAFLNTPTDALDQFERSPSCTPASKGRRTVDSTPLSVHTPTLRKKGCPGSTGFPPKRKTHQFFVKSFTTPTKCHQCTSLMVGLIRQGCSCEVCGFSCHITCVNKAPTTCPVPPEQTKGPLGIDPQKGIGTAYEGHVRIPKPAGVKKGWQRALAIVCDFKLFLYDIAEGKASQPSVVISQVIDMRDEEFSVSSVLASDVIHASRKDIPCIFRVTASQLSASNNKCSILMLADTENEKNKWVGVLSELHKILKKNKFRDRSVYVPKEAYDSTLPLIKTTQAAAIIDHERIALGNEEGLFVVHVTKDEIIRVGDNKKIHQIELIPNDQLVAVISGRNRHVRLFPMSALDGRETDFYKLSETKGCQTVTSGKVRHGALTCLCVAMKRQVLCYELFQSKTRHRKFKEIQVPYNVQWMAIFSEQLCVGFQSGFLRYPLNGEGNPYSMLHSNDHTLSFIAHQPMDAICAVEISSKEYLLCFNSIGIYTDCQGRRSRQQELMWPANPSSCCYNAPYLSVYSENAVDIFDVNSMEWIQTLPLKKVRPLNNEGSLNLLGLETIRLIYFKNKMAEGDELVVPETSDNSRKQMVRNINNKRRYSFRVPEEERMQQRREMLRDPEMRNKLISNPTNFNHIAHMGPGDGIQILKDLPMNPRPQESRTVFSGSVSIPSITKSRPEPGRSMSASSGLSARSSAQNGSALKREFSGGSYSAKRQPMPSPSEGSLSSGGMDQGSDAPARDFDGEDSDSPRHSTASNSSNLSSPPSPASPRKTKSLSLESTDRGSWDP
# BRAF, sequence (P15056 whole entry): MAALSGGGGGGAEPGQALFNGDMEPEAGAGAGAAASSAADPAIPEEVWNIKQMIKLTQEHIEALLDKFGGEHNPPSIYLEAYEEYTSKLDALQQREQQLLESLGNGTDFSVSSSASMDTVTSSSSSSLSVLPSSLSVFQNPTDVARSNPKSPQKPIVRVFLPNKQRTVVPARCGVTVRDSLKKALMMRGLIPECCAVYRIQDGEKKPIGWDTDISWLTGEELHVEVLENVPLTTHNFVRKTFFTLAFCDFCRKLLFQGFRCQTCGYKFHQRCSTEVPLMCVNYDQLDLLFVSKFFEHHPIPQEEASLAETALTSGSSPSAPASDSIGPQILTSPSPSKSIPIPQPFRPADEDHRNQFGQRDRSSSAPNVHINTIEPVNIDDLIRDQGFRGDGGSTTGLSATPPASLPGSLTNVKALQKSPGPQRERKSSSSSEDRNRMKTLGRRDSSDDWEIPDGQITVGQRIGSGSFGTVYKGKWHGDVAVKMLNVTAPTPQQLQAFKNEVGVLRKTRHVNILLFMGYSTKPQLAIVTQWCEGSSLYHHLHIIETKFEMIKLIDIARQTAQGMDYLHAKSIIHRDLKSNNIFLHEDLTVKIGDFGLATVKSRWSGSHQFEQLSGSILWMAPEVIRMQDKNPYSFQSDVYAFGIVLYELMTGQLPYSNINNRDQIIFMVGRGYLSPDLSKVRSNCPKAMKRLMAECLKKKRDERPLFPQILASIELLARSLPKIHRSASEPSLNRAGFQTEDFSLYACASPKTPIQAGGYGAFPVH
# PRKCB1 (PKC beta I), sequence (P05771 whole entry, species assumed): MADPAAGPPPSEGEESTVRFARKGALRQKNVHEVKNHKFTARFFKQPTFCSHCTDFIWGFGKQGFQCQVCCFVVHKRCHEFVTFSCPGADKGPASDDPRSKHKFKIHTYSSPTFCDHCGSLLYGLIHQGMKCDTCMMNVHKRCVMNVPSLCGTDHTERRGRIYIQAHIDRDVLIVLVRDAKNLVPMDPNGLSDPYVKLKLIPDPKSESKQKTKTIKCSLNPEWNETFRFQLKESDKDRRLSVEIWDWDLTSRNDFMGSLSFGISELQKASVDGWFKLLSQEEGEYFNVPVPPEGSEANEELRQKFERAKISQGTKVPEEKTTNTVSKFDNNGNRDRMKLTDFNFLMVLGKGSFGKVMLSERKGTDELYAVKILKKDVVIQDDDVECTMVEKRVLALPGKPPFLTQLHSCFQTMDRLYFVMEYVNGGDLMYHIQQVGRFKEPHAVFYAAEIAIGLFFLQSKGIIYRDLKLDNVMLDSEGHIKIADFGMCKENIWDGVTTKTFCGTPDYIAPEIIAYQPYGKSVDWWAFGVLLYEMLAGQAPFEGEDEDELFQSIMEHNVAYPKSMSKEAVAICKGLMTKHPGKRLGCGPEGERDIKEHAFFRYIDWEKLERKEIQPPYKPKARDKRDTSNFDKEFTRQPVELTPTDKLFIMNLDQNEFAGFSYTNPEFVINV
smiles,measurement,setting,value
"O=C(CNC(=O)c1cccn(Cc2ccc(F)c(F)c2)c1=O)Nc1ccc2c(c1)/C(=C/c1cnc[nH]1)C(=O)N2 [IB35, (Z)—N-(2-((3-((1H-imidazol-5-yl)methylene)-2-oxoindolin-5-yl)amino)-2-oxoethyl)-1-(3,4-difluorobenzyl)-2-oxo-1,2-dihydro pyridine-3-carboxamide]",inhibition at 0.1 µM,PRKCD (PKC delta); read-out: % Inhibition 1,-2%
same,inhibition at 0.1 µM,PRKCD (PKC delta); read-out: % Inhibition 2,-12%
same,inhibition at 0.1 µM,PRKCD (PKC delta); read-out: % Inhibition Avg,-7%
same,inhibition at 0.1 µM,CHEK2 (CHK2); read-out: % Inhibition 1,1%
same,inhibition at 0.1 µM,CHEK2 (CHK2); read-out: % Inhibition 2,8%
same,inhibition at 0.1 µM,CHEK2 (CHK2); read-out: % Inhibition Avg,4%
same,inhibition at 0.1 µM,PRKCA (PKC alpha); read-out: % Inhibition 1,-2%
same,inhibition at 0.1 µM,PRKCA (PKC alpha); read-out: % Inhibition 2,2%
same,inhibition at 0.1 µM,PRKCA (PKC alpha); read-out: % Inhibition Avg,0%
same,inhibition at 0.1 µM,AKT2 (PKB beta); read-out: % Inhibition 1,0%
same,inhibition at 0.1 µM,AKT2 (PKB beta); read-out: % Inhibition 2,-9%
same,inhibition at 0.1 µM,AKT2 (PKB beta); read-out: % Inhibition Avg,-4%
same,inhibition at 0.1 µM,JAK1; read-out: % Inhibition 1,-10%
same,inhibition at 0.1 µM,JAK1; read-out: % Inhibition 2,-6%
same,inhibition at 0.1 µM,JAK1; read-out: % Inhibition Avg,-8%
same,inhibition at 0.1 µM,RAF1 (cRAF) Y340D Y341D; read-out: % Inhibition 1,10%
same,inhibition at 0.1 µM,RAF1 (cRAF) Y340D Y341D; read-out: % Inhibition 2,11%
same,inhibition at 0.1 µM,RAF1 (cRAF) Y340D Y341D; read-out: % Inhibition Avg,10%
same,inhibition at 0.1 µM,RPS6KA1 (RSK1); read-out: % Inhibition 1,-3%
same,inhibition at 0.1 µM,RPS6KA1 (RSK1); read-out: % Inhibition 2,7%
same,inhibition at 0.1 µM,RPS6KA1 (RSK1); read-out: % Inhibition Avg,2%
same,inhibition at 0.1 µM,PRKACA (PKA); read-out: % Inhibition 1,-5%
same,inhibition at 0.1 µM,PRKACA (PKA); read-out: % Inhibition 2,-5%
same,inhibition at 0.1 µM,PRKACA (PKA); read-out: % Inhibition Avg,-5%
same,inhibition at 0.1 µM,PAK6; read-out: % Inhibition 1,1%
same,inhibition at 0.1 µM,PAK6; read-out: % Inhibition 2,-9%
same,inhibition at 0.1 µM,PAK6; read-out: % Inhibition Avg,-4%
same,inhibition at 0.1 µM,AKT1 (PKB alpha); read-out: % Inhibition 1,-6%
same,inhibition at 0.1 µM,AKT1 (PKB alpha); read-out: % Inhibition 2,-9%
same,inhibition at 0.1 µM,AKT1 (PKB alpha); read-out: % Inhibition Avg,-8%
same,inhibition at 0.1 µM,LCK; read-out: % Inhibition 1,10%
same,inhibition at 0.1 µM,LCK; read-out: % Inhibition 2,8%
same,inhibition at 0.1 µM,LCK; read-out: % Inhibition Avg,9%
same,inhibition at 0.1 µM,MAPK9 (JNK2); read-out: % Inhibition 1,3%
same,inhibition at 0.1 µM,MAPK9 (JNK2); read-out: % Inhibition 2,-5%
same,inhibition at 0.1 µM,MAPK9 (JNK2); read-out: % Inhibition Avg,-1%
same,inhibition at 0.1 µM,MAP2K1 (MEK1); read-out: % Inhibition 1,-20%
same,inhibition at 0.1 µM,MAP2K1 (MEK1); read-out: % Inhibition 2,-6%
same,inhibition at 0.1 µM,MAP2K1 (MEK1); read-out: % Inhibition Avg,-13%
same,inhibition at 0.1 µM,MAPK3 (ERK1); read-out: % Inhibition 1,-8%
same,inhibition at 0.1 µM,MAPK3 (ERK1); read-out: % Inhibition 2,1%
same,inhibition at 0.1 µM,MAPK3 (ERK1); read-out: % Inhibition Avg,-3%
same,inhibition at 0.1 µM,IRAK4; read-out: % Inhibition 1,3%
same,inhibition at 0.1 µM,IRAK4; read-out: % Inhibition 2,-14%
same,inhibition at 0.1 µM,IRAK4; read-out: % Inhibition Avg,-6%
same,inhibition at 0.1 µM,ITK; read-out: % Inhibition 1,17%
same,inhibition at 0.1 µM,ITK; read-out: % Inhibition 2,12%
same,inhibition at 0.1 µM,ITK; read-out: % Inhibition Avg,14%
same,inhibition at 0.1 µM,CSNK1A1 (CK1 alpha 1); read-out: % Inhibition 1,-3%
same,inhibition at 0.1 µM,CSNK1A1 (CK1 alpha 1); read-out: % Inhibition 2,-2%
same,inhibition at 0.1 µM,CSNK1A1 (CK1 alpha 1); read-out: % Inhibition Avg,-2%
same,inhibition at 0.1 µM,AMPK A2/B1/G1; read-out: % Inhibition 1,10%
same,inhibition at 0.1 µM,AMPK A2/B1/G1; read-out: % Inhibition 2,11%
same,inhibition at 0.1 µM,AMPK A2/B1/G1; read-out: % Inhibition Avg,10%
same,inhibition at 0.1 µM,PRKCB1 (PKC beta I); read-out: % Inhibition 1,-10%
same,inhibition at 0.1 µM,PRKCB1 (PKC beta I); read-out: % Inhibition 2,-10%
same,inhibition at 0.1 µM,PRKCB1 (PKC beta I); read-out: % Inhibition Avg,-10%
same,inhibition at 0.1 µM,GSK3B (GSK3 beta); read-out: % Inhibition 1,23%
same,inhibition at 0.1 µM,GSK3B (GSK3 beta); read-out: % Inhibition 2,25%
same,inhibition at 0.1 µM,GSK3B (GSK3 beta); read-out: % Inhibition Avg,24%
same,inhibition at 0.1 µM,PRKCE (PKC epsilon); read-out: % Inhibition 1,4%
same,inhibition at 0.1 µM,PRKCE (PKC epsilon); read-out: % Inhibition 2,3%
same,inhibition at 0.1 µM,PRKCE (PKC epsilon); read-out: % Inhibition Avg,3%
same,inhibition at 0.1 µM,PRKCZ (PKC zeta); read-out: % Inhibition 1,-3%
same,inhibition at 0.1 µM,PRKCZ (PKC zeta); read-out: % Inhibition 2,-2%
same,inhibition at 0.1 µM,PRKCZ (PKC zeta); read-out: % Inhibition Avg,-3%
same,inhibition at 0.1 µM,BRAF; read-out: % Inhibition 1,16%
same,inhibition at 0.1 µM,BRAF; read-out: % Inhibition 2,17%
same,inhibition at 0.1 µM,BRAF; read-out: % Inhibition Avg,17%
same,inhibition at 0.1 µM,MAPK8 (JNK1); read-out: % Inhibition 1,4%
same,inhibition at 0.1 µM,MAPK8 (JNK1); read-out: % Inhibition 2,21%
same,inhibition at 0.1 µM,MAPK8 (JNK1); read-out: % Inhibition Avg,12%
same,inhibition at 0.1 µM,BTK; read-out: % Inhibition 1,-4%
same,inhibition at 0.1 µM,BTK; read-out: % Inhibition 2,-2%
same,inhibition at 0.1 µM,BTK; read-out: % Inhibition Avg,-3%
same,inhibition at 0.1 µM,CDC42 BPA (MRCKA); read-out: % Inhibition 1,-1%
same,inhibition at 0.1 µM,CDC42 BPA (MRCKA); read-out: % Inhibition 2,-6%
same,inhibition at 0.1 µM,CDC42 BPA (MRCKA); read-out: % Inhibition Avg,-3%
same,inhibition at 0.1 µM,MAPK1 (ERK2); read-out: % Inhibition 1,5%
same,inhibition at 0.1 µM,MAPK1 (ERK2); read-out: % Inhibition 2,6%
same,inhibition at 0.1 µM,MAPK1 (ERK2); read-out: % Inhibition Avg,6%
